Read-outs that look alike come from different tables or passages of the source.
Legend:
Type in all cases: in vivo
SCPJU = assay: Herbicidal activity for paddy test
Method in brief: (§1)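 For paddy conditions, species grew in furrows within pots of sterilized sandy loam soil (115 cm^2 surface area), and efficacy was judged by eye as percent control, with 0 meaning no herbicidal effect and 100 meaning total kill.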

ECHOR [1] = assay: Herbicidal activity for paddy test
Method in brief: as §1

ORYSA [2] = assay: Herbicidal activity for paddy test; settings: for plant injury at 2 g/ha: 0.002 kg/ha; for plant injury at 8 g/ha: 0.008 kg/ha; for plant injury at 31 g/ha: 0.031 kg/ha; for plant injury at 125 g/ha: 0.125 kg/ha; for plant injury at 500 g/ha: 0.500 kg/ha
Method in brief: as §1

SAGPY = assay: Herbicidal activity for paddy test
Method in brief: as §1

MOOVA = assay: Herbicidal activity for paddy test
Method in brief: as §1

TRZAW = assay: Herbicidal activity, upland test, post-emergence
Source text: (§2) The sterilized sandy loam soil is filled in test pot having a surface area of 348 cm^2 for upland test conditions or 115 cm^2 for paddy test species were planted in furrows.
(§3) The pots for the post-emergent tests were placed in a greenhouse and watered for 9~14 days, then the foliage of test plants was sprayed with a solution of the test compound in a mixture of acetone and water containing a small amount of Tween 20.
(§4) After spraying the plants were kept for one day, then watered regularly for 14 to 21 days, and herbicidal activity data were recorded.
(§5) The herbicidal activity data were taken visually by percent control, wherein 0 signifies no herbicidal effect and 100 signifies complete kill.

GOSHI = assay: Herbicidal activity, upland test, post-emergence
Source text: as §2, §3, §4, §5

AESIN = assay: Herbicidal activity, upland test, post-emergence
Source text: as §2, §3, §4, §5

GLXMX = assay: Herbicidal activity, upland test, post-emergence
Source text: as §2, §3, §4, §5

SOLNI [3] = assay: Herbicidal activity, upland test, post-emergence
Source text: as §2, §3, §4, §5

ECHOR [4] = assay: Herbicidal activity, upland test, post-emergence
Source text: as §2, §3, §4, §5

SORBI [5] = assay: Herbicidal activity, upland test, post-emergence
Source text: as §2, §3, §4, §5

ZEAMX [6] = assay: Herbicidal activity, upland test, post-emergence
Source text: as §2, §3, §4, §5

ORYSA [7] = assay: Herbicidal activity, upland test, post-emergence
Source text: as §2, §3, §4, §5

ABUTH = assay: Herbicidal activity, upland test, post-emergence
Source text: as §2, §3, §4, §5

DIGSA = assay: Herbicidal activity, upland test, post-emergence
Source text: as §2, §3, §4, §5

PANDI [8] = assay: Herbicidal activity, upland test, post-emergence
Source text: as §2, §3, §4, §5

BROJA [9] = assay: Herbicidal activity, upland test, post-emergence
Source text: as §2, §3, §4, §5

SOLNI [10] = assay: Herbicidal activity, upland test, pre-emergence
Procedure: as §2
(§6) For the pre-emergent tests, were sprayed on the soil one day after planting test compound in a mixture of acetone and 7 ml of the water containing up to 0.1% Tween 20.
(§7) The concentration of the test compound in solution was varied to give a range of application rates, generally 4.0 kg/ha and submultiples thereof. The pots were placed in a greenhouse and watered regularly at the soil surface for 21 days and herbicidal effects were visually rated by a percent control.
as §5

SORBI [11] = assay: Herbicidal activity, upland test, pre-emergence
Procedure: as §2, §6, §7, §5

ZEAMX [12] = assay: Herbicidal activity, upland test, pre-emergence
Procedure: as §2, §6, §7, §5

PANDI [13] = assay: Herbicidal activity, upland test, pre-emergence
Procedure: as §2, §6, §7, §5

BROJA [14] = assay: Herbicidal activity, upland test, pre-emergence
Procedure: as §2, §6, §7, §5

[15] = 3 Leaf, read-out: Herbicidal activity, ORYSA (3 Leaf)
[16] = seed, read-out: Herbicidal activity, ORYSA (seed)

CCON=C(CC)C1=C(O)CC(c2c(C)c(C)c3c(c2C)CC(C)(C)C3)CC1=O (stereo not shown) [Compound 2]
100 % inhibition: Herbicidal activity, TRZAW (TRZAW; 1.000 kg/ha) | Herbicidal activity, TRZAW (TRZAW; 1.250 kg/ha) | Herbicidal activity, ECHOR (ECHOR [4]; 0.063 kg/ha) | Herbicidal activity, ECHOR (ECHOR [4]; 1.000 kg/ha) | Herbicidal activity, ECHOR (ECHOR [4]; 1.250 kg/ha) | Herbicidal activity, SORBI (SORBI [5]; 1.000 kg/ha) | Herbicidal activity, SORBI (SORBI [5]; 1.250 kg/ha) | Herbicidal activity, ZEAMX (ZEAMX [6]; 0.063 kg/ha) | Herbicidal activity, ZEAMX (ZEAMX [6]; 1.000 kg/ha) | Herbicidal activity, ZEAMX (ZEAMX [6]; 1.250 kg/ha) | Herbicidal activity, ORYSA (ORYSA [7]; 1.000 kg/ha) | Herbicidal activity, ORYSA (ORYSA [7]; 1.250 kg/ha) | Herbicidal activity, DIGSA (DIGSA; 0.004 kg/ha) | Herbicidal activity, DIGSA (DIGSA; 0.016 kg/ha) | Herbicidal activity, DIGSA (DIGSA; 0.063 kg/ha) | Herbicidal activity, DIGSA (DIGSA; 1.000 kg/ha) | Herbicidal activity, DIGSA (DIGSA; 1.250 kg/ha) | Herbicidal activity, PANDI (PANDI [8]; 0.063 kg/ha) | Herbicidal activity, PANDI (PANDI [8]; 1.000 kg/ha) | Herbicidal activity, PANDI (PANDI [8]; 1.250 kg/ha) | Herbicidal activity, BROJA (BROJA [9]; 1.000 kg/ha) | Herbicidal activity, BROJA (BROJA [9]; 1.250 kg/ha) | Herbicidal activity, SORBI (SORBI [11]; 1.000 kg/ha) | Herbicidal activity, ZEAMX (ZEAMX [12]; 1.000 kg/ha) | Herbicidal activity, PANDI (PANDI [13]; 1.000 kg/ha) | Herbicidal activity, PANDI (PANDI [13]; 1.250 kg/ha) | Herbicidal activity, BROJA (BROJA [14]; 1.000 kg/ha)
20 % inhibition: Herbicidal activity, ORYSA (ORYSA [7]; 0.016 kg/ha) | Herbicidal activity, BROJA (BROJA [14]; 0.063 kg/ha)
60 % inhibition: Herbicidal activity, GLXMX (GLXMX; 1.000 kg/ha) | Herbicidal activity, SORBI (SORBI [5]; 0.063 kg/ha) | Herbicidal activity, BROJA (BROJA [9]; 0.063 kg/ha) | Herbicidal activity, BROJA (BROJA [14]; 1.250 kg/ha)
100%: pest or weed control at 8 g/ha (ECHOR [1]; 0.008 kg/ha) | pest or weed control at 31 g/ha (ECHOR [1]; 0.031 kg/ha) | pest or weed control at 125 g/ha (ECHOR [1]; 0.125 kg/ha) | pest or weed control at 500 g/ha (ECHOR [1]; 0.500 kg/ha) | plant injury at 500 g/ha (ORYSA [2]; [15]) | plant injury at 31 g/ha (ORYSA [2]; [16]) | plant injury at 125 g/ha (ORYSA [2]; [16]) | plant injury at 500 g/ha (ORYSA [2]; [16])
0%: pest or weed control at 2 g/ha (SCPJU; 0.002 kg/ha) | pest or weed control at 8 g/ha (SCPJU; 0.008 kg/ha) | pest or weed control at 31 g/ha (SCPJU; 0.031 kg/ha) | pest or weed control at 125 g/ha (SCPJU; 0.125 kg/ha) | pest or weed control at 500 g/ha (SCPJU; 0.500 kg/ha) | plant injury at 2 g/ha (ORYSA [2]; [15]) | plant injury at 8 g/ha (ORYSA [2]; [15]) | plant injury at 31 g/ha (ORYSA [2]; [15]) | pest or weed control at 2 g/ha (SAGPY; 0.002 kg/ha) | pest or weed control at 8 g/ha (SAGPY; 0.008 kg/ha) | pest or weed control at 31 g/ha (SAGPY; 0.031 kg/ha) | pest or weed control at 125 g/ha (SAGPY; 0.125 kg/ha) | pest or weed control at 500 g/ha (SAGPY; 0.500 kg/ha) | pest or weed control at 2 g/ha (MOOVA; 0.002 kg/ha) | pest or weed control at 8 g/ha (MOOVA; 0.008 kg/ha) | pest or weed control at 31 g/ha (MOOVA; 0.031 kg/ha) | pest or weed control at 125 g/ha (MOOVA; 0.125 kg/ha) | pest or weed control at 500 g/ha (MOOVA; 0.500 kg/ha)
50 % inhibition: Herbicidal activity, GOSHI (GOSHI; 1.250 kg/ha) | Herbicidal activity, PANDI (PANDI [13]; 0.063 kg/ha)
30 % inhibition: Herbicidal activity, GLXMX (GLXMX; 0.063 kg/ha) | Herbicidal activity, SORBI (SORBI [11]; 1.250 kg/ha)
30%: plant injury at 2 g/ha (ORYSA [2]; [16])
70 % inhibition: Herbicidal activity, GOSHI (GOSHI; 1.000 kg/ha)
90 % inhibition: Herbicidal activity, ECHOR (ECHOR [4]; 0.016 kg/ha)
0 % inhibition: Herbicidal activity, TRZAW (TRZAW; 0.004 kg/ha) | Herbicidal activity, TRZAW (TRZAW; 0.016 kg/ha) | Herbicidal activity, GOSHI (GOSHI; 0.004 kg/ha) | Herbicidal activity, GOSHI (GOSHI; 0.016 kg/ha) | Herbicidal activity, AESIN (AESIN; 0.004 kg/ha) | Herbicidal activity, AESIN (AESIN; 0.016 kg/ha) | Herbicidal activity, AESIN (AESIN; 0.063 kg/ha) | Herbicidal activity, AESIN (AESIN; 1.000 kg/ha) | Herbicidal activity, AESIN (AESIN; 1.250 kg/ha) | Herbicidal activity, GLXMX (GLXMX; 0.004 kg/ha) | Herbicidal activity, GLXMX (GLXMX; 0.016 kg/ha) | Herbicidal activity, SOLNI (SOLNI [3]; 0.004 kg/ha) | Herbicidal activity, SOLNI (SOLNI [3]; 0.016 kg/ha) | Herbicidal activity, SOLNI (SOLNI [3]; 0.063 kg/ha) | Herbicidal activity, SOLNI (SOLNI [3]; 1.000 kg/ha) | Herbicidal activity, SOLNI (SOLNI [3]; 1.250 kg/ha) | Herbicidal activity, SORBI (SORBI [5]; 0.004 kg/ha) | Herbicidal activity, SORBI (SORBI [5]; 0.016 kg/ha) | Herbicidal activity, ZEAMX (ZEAMX [6]; 0.004 kg/ha) | Herbicidal activity, ORYSA (ORYSA [7]; 0.004 kg/ha) | Herbicidal activity, ABUTH (ABUTH; 0.004 kg/ha) | Herbicidal activity, ABUTH (ABUTH; 0.016 kg/ha) | Herbicidal activity, ABUTH (ABUTH; 0.063 kg/ha) | Herbicidal activity, ABUTH (ABUTH; 1.000 kg/ha) | Herbicidal activity, ABUTH (ABUTH; 1.250 kg/ha) | Herbicidal activity, PANDI (PANDI [8]; 0.004 kg/ha) | Herbicidal activity, BROJA (BROJA [9]; 0.004 kg/ha) | Herbicidal activity, BROJA (BROJA [9]; 0.016 kg/ha) | Herbicidal activity, SOLNI (SOLNI [10]; 0.016 kg/ha) | Herbicidal activity, SOLNI (SOLNI [10]; 0.063 kg/ha) | Herbicidal activity, SOLNI (SOLNI [10]; 1.000 kg/ha) | Herbicidal activity, SOLNI (SOLNI [10]; 1.250 kg/ha) | Herbicidal activity, SORBI (SORBI [11]; 0.016 kg/ha) | Herbicidal activity, SORBI (SORBI [11]; 0.063 kg/ha) | Herbicidal activity, ZEAMX (ZEAMX [12]; 0.016 kg/ha) | Herbicidal activity, ZEAMX (ZEAMX [12]; 0.063 kg/ha) | Herbicidal activity, PANDI (PANDI [13]; 0.016 kg/ha) | Herbicidal activity, BROJA (BROJA [14]; 0.016 kg/ha)
80 % inhibition: Herbicidal activity, ECHOR (ECHOR [4]; 0.004 kg/ha)
40 % inhibition: Herbicidal activity, TRZAW (TRZAW; 0.063 kg/ha) | Herbicidal activity, GOSHI (GOSHI; 0.063 kg/ha) | Herbicidal activity, GLXMX (GLXMX; 1.250 kg/ha) | Herbicidal activity, ZEAMX (ZEAMX [6]; 0.016 kg/ha) | Herbicidal activity, ORYSA (ORYSA [7]; 0.063 kg/ha) | Herbicidal activity, PANDI (PANDI [8]; 0.016 kg/ha) | Herbicidal activity, ZEAMX (ZEAMX [12]; 1.250 kg/ha)
60%: pest or weed control at 2 g/ha (ECHOR [1]; 0.002 kg/ha) | plant injury at 125 g/ha (ORYSA [2]; [15])
80%: plant injury at 8 g/ha (ORYSA [2]; [16])
